According to US10450258B2, “Substituted aromatic compounds for the treatment of pulmonary fibrosis, liver fibrosis, skin fibrosis and cardiac fibrosis” (PROMETIC PHARMA SMT LIMITED, priority 2013, dated 2019):
“Also recorded” adds a separate entry of the source.

Tests used:
[1] = tested on: collagen 1 mRNA in NHDF cells; assay: Inhibition of collagen mRNA in TGF-β-activated NHDF fibroblasts; type: cell-based; settings: Homo sapiens, compound 0.5 mM
Protocol: (§1) CTGF, collagen 1 and α-SMA are fibrotic markers produced by activated fibroblasts and by epithelial cells that undergo to epithelial-mesenchymal transition (EMT).
(§2) Table 2: Percentage of inhibition of collagen in epithelial cells (HK2 cells) and fibroblasts (NHDF) and percentage of inhibition of α-SMA in fibroblasts (NRK-49F and NHDF) has been determined for several compounds according the invention. In all cases, the mRNA of collagen and α-SMA has been measured, and the inhibition was evaluated in presence of a respective concentration of the tested compound. The compounds have been tested at different concentrations [mM]. All compounds reduce the expression of collagen and α-SMA in HK-2, NHDF and NRK-49F cells.

[2] = tested on: α-SMA mRNA in NRK-49F cells; assay: Inhibition of α-SMA mRNA in TGF-β-activated NRK-49F fibroblasts; type: cell-based, rat; settings: Rattus norvegicus, NRK-49F, compound 0.5 mM
Protocol: as §1, §2

[3] = tested on: CCl4-induced liver fibrosis mouse model; assay: CCl4-induced liver fibrosis mouse model; type: in vivo, mouse (male C57BL/6)
From the text: Hepatic fibrosis is an outcome of many chronic liver diseases, including hepatitis B virus, hepatitis C virus, alcoholic liver disease, non-alcoholic steatohepatitis and diverse chronic intoxication. It was thus desired to evaluate the effect of Compound I on murine CCl4-induced liver fibrosis. Intoxication with CCl4 results in hepatocyte damage, necrosis, inflammation, and fibrosis, which spreads to link the vascular structures that feed into and drain the hepatic sinusoid (the portal tract and central vein radical, respectively), and over 8-30 weeks results in the development of fibrosis to hepatocellular carcinoma. Therefore, evaluation of candidate antifibrotic drugs such as Compound I can be undertaken by treatment of the mice at appropriate time points and histologic, biochemical and cellular readouts may be used to monitor candidate drug efficacy in this model.
CCl4 (10% in corn oil, 2 ml/kg) was intraperitoneally injected twice a week for 16 weeks in male C57BL/6. Compound I (200 mg/kg) was orally administered every day from day 1 to day 113. Mice were euthanasized and histology and liver fibrotic markers were analyzed.
To determine if Compound I has an effect on liver fibrosis, hydroxyproline level was used to measure the collagen content in the tissue, which is indicative of liver fibrosis.
The reduction of collagen level in liver tissue was also observed in histological micrographs using the Masson's Trichrome staining.
The Masson's trichrome stain the cytoplasm, keratin, muscle fibers and intracellular fibers in red colour; nuclei in black colour and collagen (fibrous tissue) in blue color.
Another experiment has been performed with Compound 1 and Compound V where CCL4 (10% in olive oil, 2 ml/kg) was intraperitoneally injected twice a week for 8 weeks in male C57BL/6. Compound 1 and compound V were orally administered (100 and 200 mg/kg) every day from day 1 to day 58. Mice were euthanasized and collagen content (marker of fibrosis) in the liver was quantified by histomorphometry using Masson's trichrome staining.

[4] = tested on: normal human dermal fibroblasts (NHDF); assay: Scratch assay (migration and invasion) of EGF-stimulated NHDF; type: cell-based; settings: mitomycin-treated NHDF, compound 0.5 mM, FIG. 26
Protocol: The next experiments (scratch assay, invasion/migration) were designed to determine the effect of Compound I on EGF-stimulated normal human dermal fibroblasts (NHDF). In summary, mitomycin-treated NHDF were stimulated with EGF and incubated in the presence or absence (control) of Compound I (0.5 mM). EGF stimulated fibroblast invasion into the scratch which is inhibited by Compound I (FIG. 26).

α-SMA mRNA in NHDF cells = assay: Inhibition of α-SMA mRNA in TGF-β-activated NHDF fibroblasts; type: cell-based; settings: Homo sapiens, compound 0.5 mM
Protocol: as §1, §2

[5] = tested on: TGF-β, CTGF, IL-23p19, IL-6, collagen 1, fibronectin (FN-1), collagen 3 mRNA in lung tissue; assay: Real-time PCR of inflammatory and fibrotic marker mRNA in lung tissue, bleomycin-induced pulmonary fibrosis mouse model; type: in vivo, mouse (male C57BL6)
Protocol: Male C57BL6 mice are administered intratracheal instillation of bleomycin sulphate (0.025 U) at day 0, randomized and administered Compound I (oral administration, 100 mg/kg and 200 mg/kg) on day 7 to day 20.
Further analysis of the lung tissue was undertaken. CTGF, collagen 1 and IL-23p19 mRNA expression was quantified by real-time PCR.
It was therefore evaluated side-by-side with Compound I in the bleomycin-induced pulmonary fibrosis mouse model by the same protocol described in Example 4 above. Compound I (200 mg/kg) and pirfenidone (400 mg/kg) were orally administered either alone or in combination.
In order to determine the effect of Compound I on pulmonary fibrosis, further analysis of the lung tissue was undertaken. TGF-β, CTGF, IL-23 and IL-6 mRNA expression was quantified by real-time PCR. […] Oral administration of pirfenidone had no effect on CTGF mRNA expression but decreased TGF-β, IL-23 and IL-6 mRNA expression. […]

[6] = tested on: heart fibrosis in 5/6 nephrectomized-catheterized rats; assay: Heart fibrosis in 5/6 nephrectomized-catheterized (5/6-Nx) rats; type: in vivo, rat (male Sprague-Dawley); settings: for hydroxyproline (collagen) content in heart: FIG. 31
From the text: Implantation of a femoral catheter increases the presence of heart fibrosis in our 5/6 nephrectomized (5/6-Nx) model and it was used to assess the effect of Compound I on heart fibrosis. In summary, male 6-week old Sprague-Dawley rats were subjected to 5/6-Nx or sham operations. Briefly, two-thirds of the left kidney was removed on day 0 followed by the right total nephrectomy on day 7. A catheter was implanted via the femoral vein on day 7. Sham operated rats underwent exposition of the kidneys and removal of the perirenal fat and were used as controls. Animals that underwent the sham operation were treated with vehicle (water) and were used as controls. On day 21, rats were randomized based on their glomerular filtration rate (GFR) results. 5/6-Nx animals were treated with three times a week intravenous administration of Compound I (10 mg/kg), or with daily oral administration with Compound I (200 mg/kg). Heart fibrosis was determined by the measurement of hydroxyproline (collagen content) and by histological evaluation (HPE and Masson's trichrome staining). As mentioned, implantation of catheter for intravenous administration of compounds in catheterized 5/6 nephrectomized animals is inducing heart fibrosis compare to oral treatment (no catheter). Oral treatment is identified herein with the expression “po” that means “per os”; intravenous administration is identified with the expression “iv” for “intravenous”. As exemplified in FIG. 27, 5/6-Nx rats have weak heart lesions. However, implantation of a catheter induced a significant increase (4 times) of heart lesions (fibrosis, necrosis and inflammation).

## CCCCCc1cccc(CC(=O)[O-])c1.[Na+] [Compound I, Sodium Salt of 3-pentylphenylacetic acid]
[1]
  inhibition at 500 µM: 65%
[2]
  inhibition at 500 µM: 85%
[3]; CCl4 16 weeks, oral 200 mg/kg daily, FIG. 20
  collagen score in liver (Masson's Trichrome staining): significant reduction
[3]; CCl4 16 weeks, oral 200 mg/kg daily, FIG. 21
  collagen deposition and bridging formation in liver (photomicrographs): significant reduction of collagen deposition and bridging formation
[3]; CCl4 twice a week for 8 weeks, oral 100 and 200 mg/kg every day, day 1 to day 58, FIG. 22
  collagen content in liver (histomorphometry, Masson's trichrome): significant reduction
[3]; CCl4 twice a week for 16 weeks, oral 200 mg/kg every day, day 1 to day 113, FIG. 19
  hydroxyproline level in liver: significant reduction
[4]
  EGF-stimulated fibroblast migration and invasion into the scratch: reduction of the migration and invasion; also recorded: inhibited
α-SMA mRNA in NHDF cells
  inhibition at 500 µM: 99%
[5]; oral 100 and 200 mg/kg, Example 21, FIG. 4
  CTGF mRNA expression in lungs: significantly decreased the expression
[5]; oral 100 and 200 mg/kg, Example 21, FIG. 5
  IL-23p19 mRNA expression in lungs: significantly decreased the expression
[5]; oral 100 and 200 mg/kg, Example 21, FIG. 6
  collagen 1 mRNA expression in lungs: significantly decreased the expression
[5]; oral, Compound I 200 mg/kg, pirfenidone 400 mg/kg, alone or combined, FIG. 12
  TGF-β mRNA expression in lungs: significantly decreased the expression
[5]; oral, Compound I 200 mg/kg, pirfenidone 400 mg/kg, alone or combined, FIG. 13
  CTGF mRNA expression in lungs: significantly decreased the expression
[5]; oral, Compound I 200 mg/kg, pirfenidone 400 mg/kg, alone or combined, FIG. 14
  IL-23 mRNA expression in lungs: significantly decreased the expression
[5]; oral, Compound I 200 mg/kg, pirfenidone 400 mg/kg, alone or combined, FIG. 15
  IL-6 mRNA expression in lungs: significantly decreased the expression
[5]; oral, Compound I 200 mg/kg, pirfenidone 400 mg/kg, alone or combined, FIG. 18
  collagen 3 mRNA expression in lungs: weak reduction
[5]; oral, Compound I 200 mg/kg, pirfenidone 400 mg/kg, alone or combined, reduction to the control level, FIG. 16
  collagen 1 mRNA expression in lungs: significant reduction
[5]; oral, Compound I 200 mg/kg, pirfenidone 400 mg/kg, alone or combined, reduction to the control level, FIG. 17
  fibronectin (FN-1) mRNA expression in lungs: significant reduction
[6]; intravenous 10 mg/kg three times a week, FIG. 29
  inflammation level in heart: significant reduction of inflammation
[6]; intravenous 10 mg/kg three times a week, FIG. 30
  necrosis level in heart: significant reduction of necrosis
[6]; intravenous 10 mg/kg three times a week
  hydroxyproline (collagen) content in heart: significant reduction
[6]; intravenous 10 mg/kg three times a week, p<0.05, FIG. 28
  total heart lesions (histological evaluation): reduces significantly
[6]; intravenous, FIG. 34
  heart fibrosis (blue-colored collagen deposition, Masson's trichrome photomicrographs): reduces fibrosis
[6]; oral 200 mg/kg daily
  hydroxyproline (collagen) content in heart: significant reduction
[6]; oral, FIGS. 32 and 33
  heart fibrosis (blue-colored collagen deposition, Masson's trichrome photomicrographs): reduces fibrosis
